From patent US9688760B2, “Anti-leukocyte adhesion for the mitigation of potential adverse events caused by CD3-specific binding domains” (AMGEN RESEARCH (MUNICH) GMBH, priority 2013, dated 2017)

Tests used:
[1] = system: recombinant human VCAM-1; assay: Flow chamber: T cell-rolling on recombinant VCAM-1, semi short-term conditions; type: cell-based; settings: freshly isolated T cells
Procedure: (§1) Recombinant proteins (rhICAM-1 #ADP4-050, rhVCAM-1 #ADP5-050 or rhP-selectin #ADP3-050, R&D Systems) were dissolved in ddH2O according to the manufacturer's instructions. Prior to rolling experiments recombinant proteins were diluted in Dulbecco's PBS with Ca^2+ and Mg^2+ (#L1815, Biochrom) and coated onto a μ-slide VI^0.4 Luer ibiTreat (#80606, ibidi) over night at 4° C. Before usage slides were washed three times with Dulbecco's PBS and blocked where indicated with 20% FBS (#10270, Gibco) in PBS for 2 h at room temperature. Blocking solution was replaced by RPMI 1640 medium (#FG1215, Biochrom) without supplements.
Isolation and characterization of human peripheral blood mononuclear cells (PBMC) and T cells from blood were performed as described in Example 2 (p. 48, 1-31).
(§2) For rolling experiments using freshly isolated T cells, these cells were resuspended in RPMI 1640 medium (#FG1215, Biochrom) without supplements to a final concentration of 1×10^6 cells/ml at the start of the experiment (t=0 min; addition of 10 ng/ml Blinatumomab (AMG 103)) and incubated for 35 min at 37° C. and 5% CO2. Cells were then filled in a perfusion set “white” (#10963, ibidi) which was connected to both a fluidic unit and the μ-slide and image sequences of 45 sec duration were recorded at t=40 min, 45 min, and 50 min as described in Example 2 (p. 50, 18-23). […]

[2] = system: patients; assay: Clinical studies of Blinatumomab in B-NHL and B-precursor ALL; type: in vivo, human
Source text: Various clinical studies evaluating the safety and efficacy of Blinatumomab have been conducted both in B-NHL (Bargou et al. Science. 2008; 321:974-7) and B-precursor ALL (Topp et al. J Clin Oncol. 2011; 29:2493-8). […] These studies established clinical proof of concept for the high therapeutic potential of the bispecific single-chain antibody format in general and of Blinatumomab in special and validated its further development in B-NHL, ALL and CLL. Throughout these studies in B-NHL and B-precursor ALL several pharmacodynamic markers were assessed. […] It was characterized by a swift redistribution after start of infusion and any dose step, i.e. a fast disappearance of circulating T cells within the first 6-12 hours and a subsequent reappearance during the following 2-7 days where high initial B cell-counts correlated with decelerated kinetics of T cell-reappearance (FIG. 1A). This course seemed to be triggered by any significant dose changes of Blinatumomab rather than absolute serum concentrations. In addition, T cell-adhesiveness was measured throughout treatment week 1 by analyzing binding of soluble ICAM-1-Fc fusion proteins to LFA-1 on T cells. […] This finding coincided with T cell-redistribution and supported the concept of Blinatumomab-induced T cell-adhesion to endothelium during redistribution.

[3] = system: recombinant human P-selectin; assay: Flow chamber: T cell-rolling on recombinant P-selectin, semi short-term conditions; type: cell-based; settings: +AMG 103 10 ng/ml, coated at 20 μg/ml
Procedure: as §1
Isolation and characterization of human peripheral blood mononuclear cells (PBMC) and T cells from blood were performed as described in Example 2 (p. 48, 1-31). […]
as §2

[4] = system: patients; assay: Phase 1 clinical study: Blinatumomab with PPS co-medication; type: in vivo, human; settings: for clinical response: with PPS co-medication
Procedure: In a phase 1 clinical study three patients were treated with Blinatumomab at an initial dose of 5 μg/m^2/day for 1 week followed by a dose escalation to 60 μg/m^2/day for additional 3 to 7 weeks.

[5] = three patients with PPS co-medication

Blinatumomab: recombinant CD19×CD3 bispecific scFv antibody consisting of four immunoglobulin variable domains assembled into a single polypeptide chain
mean T cell-rolling velocity±SD ([1]; +AMG 103 10 ng/ml with vehicle DMSO, t=40 min, coated at 20 μg/ml, control −AMG 103 259±35): 205±45 μm/sec | mean T cell-rolling velocity±SD ([1]; +AMG 103 10 ng/ml, t=45 min, coated at 10 μg/ml, with blocking, control −AMG 103 418±136): 353±72 μm/sec | time of disappearance of circulating T cells after start of infusion and any dose step ([2]; T cell-redistribution, irrespective of dose level): 6 to 12 h | time to return of LFA-1 binding affinity to baseline ([2]; after peak): ≤ 5 days | time to peak of increased LFA-1 binding affinity to ICAM-1 ([2]; binding of soluble ICAM-1-Fc to LFA-1 on T cells, treatment week 1): ≤ 48 h | time of reappearance of circulating T cells ([2]; following T cell disappearance): 2 to 7 days | mean T cell-rolling velocity±SD ([3]; Jurkat E6.1 T cells, t=45 min, control −AMG 103 500±81): 413±104 μm/sec | mean T cell-rolling velocity±SD ([3]; freshly isolated T cells, t=50 min, with blocking, control −AMG 103 402±115): 293±73 μm/sec | clinical response ([4]; Patient 109-036, Follicular Lymphoma grade I/II, after 57 days of civ infusion): complete response (CR) | clinical response ([4]; Patient 109-040, Lymphoplasmocytic Lymphoma, after 30 days of civ infusion): stable disease (SD) | clinical response ([4]; Patient 109-042, Follicular Lymphoma grade I/II, after 56 days of civ infusion): complete response (CR) | T cell-counts in peripheral blood 45 minutes after start of infusion or stepwise dose increase ([4]; patients receiving Blinatumomab without co-medication with PPS): rapid decline of T cell-counts | clinical response after 4 weeks of treatment [4, 5]: one patient had a stable disease | clinical response after 8 weeks of treatment [4, 5]: Two out of the three patients achieved a complete response
